According to US4734409A, “Cephalosporin derivative, process for producing the same and pharmaceutical composition containing the same” (Kureha Kagaku Kogyo Kabushiki Kaisha, priority 1984, dated 1988):

Columns and labels:
[1] = tested on: Pseudomonas aeruginosa IAM 1514; assay: Antibacterial activity, agar plate dilution method: P. aeruginosa IAM 1514; type: cell-based; conditions: Mueller-Hinton agar, 10^6 cells/ml, 37° C., 18 to 24 hours
Method: (§1) Antibacterial activity of the present compound was examined by agar plate dilution method while following the standard method of Japan Society of Chemotherapy and using the following strain: 5. Pseudomonas aeruginosa IAM 1514 Namely, after inoculating each bacteria on Mueller-Hinton culture medium, the inoculum was incubated for 18 to 48 hours at 37° C. and after adjusting the number of cells of each bacteria so as to contain 10^6 in one ml, the thus prepared specimen was used as the test bacterial liquid. Each of the present substances (the substance in Example 1 and the substance in Example 2) was dispersed in aqueous physiological saline solution at a predetermined concentration and the thus prepared dispersion was added to 9 times by volume of the culture medium for examining sensitivity (Mueller-Hinton culture medium) to prepare agar plates. On each agar plate, each of the test bacterial liquid was smeared at a width of about 2 cm, and the thus smeared agar plate was incubated for 18 to 24 hours at 37° C.

[2] = tested on: Escherichia coli IFO 12734; assay: Antibacterial activity, agar plate dilution method: E. coli IFO 12734; type: cell-based; conditions: Mueller-Hinton agar, 10^6 cells/ml, 37° C., 18 to 24 hours
Method: as §1, with “1. Escherichia coli IFO 12734” for “5. Pseudomonas aeruginosa IAM 1514”

[3] = tested on: Escherichia coli IFO 12734; assay: Therapeutic effect on the experimental infectious disease on mice; type: in vivo, Escherichia coli (infected ddY-SPF mice)
Source text: Therapeutic effect of the present compounds on the infection was examined as follows.

[4] = tested on: Staphylococcus aureus IAM 1011; assay: Antibacterial activity, agar plate dilution method: S. aureus IAM 1011; type: cell-based; conditions: Mueller-Hinton agar, 10^6 cells/ml, 37° C., 18 to 24 hours
Method: as §1, with “2. Staphylococcus aureus” for “5. Pseudomonas aeruginosa”, “1011” for “1514”

[5] = tested on: Staphylococcus aureus IAM 1011; assay: in vitro; type: in vitro ADME
Method: As a model experiment for verifying the stability of the present compound in Example 1 in the living body, the following procedures were adopted. The same test solution of the present compound as in Example 6 was prepared by mixing 0.1 ml of the dispersion of the present compound and 0.9 ml of S-9 mix, and shaking the mixture for 20 min at 37° C. As a control, a mixture of 0.1 ml of the dispersion of the present compound and 0.9 ml of the 0.2M phosphoric acid buffer was shaken for 20 min at 37° C. As the test bacteria, Staphylococcus aureus IAM 1011 was inoculated in Mueller-Hinton culture medium, and after incubating the inoculum for 18 hours at 37° C., the number of bacteria in the medium was adjusted to 10^8 /ml and the thus adjusted, cultured medium was mixed with 50 times by volume of Mueller-Hinton culture medium. After preparing an agar plate from the mixture, a penicillin cup of 8 mm in diameter was placed on the agar plate, and 0.1 ml of the test solution prepared above was put into the cup. After leaving the thus prepared agar plate for 2 hours at 4° C., the agar plate was subjected to culture for 18 hours at 37° C. to measure the diameter of a proliferation-inhibiting circle appearing on the agar plate. From a calibration curve preliminarily prepared between the concentration of the present compound and the diameter of the proliferation-inhibiting circle, the concentration of the present compound in the test solution and the control was obtained. By using the thus obtained concentration, the rate of retaining the antibacterial activity (Rate (%)) was calculated from the following formula and is shown in Table 5. [formula] As a comparative experiment, the same precedures were carried out except for using Cefotax (a commercialized cephalosporin derivative sold by CHUGAI Pharmaceuticla Co., Ltd., which is represented by the following formula), [drawing 21] instead of the present compound produced in Example 1.

[6] = tested on: Serratia marcescens IAM 1223; assay: Antibacterial activity, agar plate dilution method: S. marcescens IAM 1223; type: cell-based; conditions: Mueller-Hinton agar, 10^6 cells/ml, 37° C., 18 to 24 hours
Method: as §1, with “6. Serratia marcescens” for “5. Pseudomonas aeruginosa”, “1223” for “1514”

[7] = tested on: Proteus vulgaris IAM 1025; assay: Antibacterial activity, agar plate dilution method: P. vulgaris IAM 1025; type: cell-based; conditions: Mueller-Hinton agar, 10^6 cells/ml, 37° C., 18 to 24 hours
Method: as §1, with “4. Proteus vulgaris” for “5. Pseudomonas aeruginosa”, “1025” for “1514”

| SMILES | minimal inhibitory concentration (MIC), P. aeruginosa IAM 1514 [1] | minimal inhibitory concentration (MIC), E. coli IFO 12734 [2] | survival 7 days after inoculation ([3]; intravenous administration, dose not given) | minimal inhibitory concentration (MIC), S. aureus IAM 1011 [4] | Rate of retaining the antibacterial activity (in words) [5] | minimal inhibitory concentration (MIC), S. marcescens IAM 1223 [6] | minimal inhibitory concentration (MIC), Pro. vulgaris IAM 1025 [7] | survival 7 days after inoculation ([3]; 25 mg/kg orally, 1 time, 1 hour after intraperitoneal inoculation of 1.4×10^3 cells, all untreated mice died on the second day) |
| --- | --- | --- | --- | --- | --- | --- | --- | --- |
| CO/N=C(\C(=O)N[C@@H]1C(=O)N2C(C(=O)O)=C(CSc3nnc(C)s3)CS[C@H]12)c1csc(NC(=O)C(Cl)Cl)n1 [Example 1, 7β-[2-(2-dichloroacetamido-4-thiazolyl)-(Z)-2-methoxyiminoacetamido]-3-[(2-methyl-1,3,4-thiadiazol-5-yl)thiomethyl]-3-cephem-4-carboxylic acid] | 50 | 0.1 | All the ddY-SPF mice administered with the present compound produced in Example 1 via intravenation survived | 0.78 | superior to a conventional commerciallized cephalosporin derivative | 0.4 | 0.05 |  |
| CO/N=C(\C(=O)N[C@@H]1C(=O)N2C(C(=O)OCOC(=O)C(C)(C)C)=C(CSc3nnc(C)s3)CS[C@H]12)c1csc(NC(=O)C(Cl)Cl)n1 [Example 2] | ≥ 100 | 50 |  | ≥ 100 | the same result as that obtained in using the present compound produced in Example 1 | ≥ 100 | 50 | all the mice administered with the present compound survived |
